Experimental findings from patent publication US10227347B2, “Purinyl-N-hydroxyl pyrimidine formamide derivative, preparation methods and uses thereof” (Guizhou Bailing Group Pharmaceutical CO., LTD., priority 2015, dated 2019) are described below.

In test [1] the test system is A2780s cells (ovarian cancer). Briefly: Cell proliferation inhibition, A2780s (MTT). In kind it is cell-based. Particulars: Homo sapiens. The essentials:
(§1)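 Cells seeded at 2000-3000/well; adherent lines dosed after attachment, then 96 h incubation with compound. Viability read by MTT for solid-tumour lines (HCT116, A2780s) and CCK-8 for MV4-11; IC50 from four-parameter logistic fit of inhibition ratio versus concentration.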

Test [2] relates to HBL-1 cells (B-cell lymphoma). Briefly: Proliferation inhibition, HBL-1 (cck-8). The test is classed as cell-based. Particulars: Homo sapiens, HBL1; 96 h incubation. From the text: Calculating the value of IC50 as per the formula: Y=background data+(top data−background data)/(1+10^((Log IC50−X)*rate of curve)). Where, Y refers to the inhibition ratio (%) and X refers to the compound concentration.

For test [3], the system named is MV4-11 cells (acute myeloid leukemia). Briefly: Cell proliferation inhibition, MV4-11 (cck-8). Particulars: Homo sapiens. In kind it is cell-based. Put shortly: as §1
Test [4] has as its system acetylated Ac-α-tubulin in A2780s cells. Briefly: Induction of α-tubulin acetylation in A2780s cells (cytoblot). The test is classed as cell-based. Conditions: Homo sapiens, 6 h treatment, read-out: Ac-Tub EC50. Here is the method: Specific operation: After the treatment, washing each well once with 50-100 μl of cold TBS buffer [with the composition as 20 mM Tris (trismetyl aminomethane), pH7.5] and fixing it with 100 μL of 4% pre-cooled paraformaldehyde at 4° C. for 1 h; after paraformaldehyde is washed off, adding 50 μL of pre-cooled methyl alcohol in each well and evenly spreading at 4° C. for 5 min; after methyl alcohol is washed off, washing it once with the TBS buffer containing 3% skim milk powder and adding 50 μL of antibody fluid, oscillating it slightly at 4° C. and incubating overnight. For determination of Ac—H3, the antibody fluid is prepared by diluting Ac—H3 antibody and horseradish peroxide coupled secondary antibody to a same system with the TBS buffer containing 3% skim milk powder (Ac—H3 antibody is purchased from Santa Cruz Company and diluted at a ratio of 1:100; horseradish peroxide coupled secondary antibody is purchased from Jackson Company and diluted at a ratio of 1:2000); for determination of acetylated Ac-α-tubulin, the antibody fluid is prepared by diluting Ac-α-tubulin antibody and horseradish peroxide coupled secondary antibody to a same system with the TBS buffer containing 3% skim milk powder (Ac-α-tubulin antibody is purchased from Santa Cruz Company and diluted at a ratio of 1:100; horseradish peroxide coupled secondary antibody is purchased from Jackson Company and diluted at a ratio of 1:2000).
Calculating the value of IC50 as per the formula: Y=background data+(top data−background data)/(1+10^((Log EC50−X)*rate of curve)) Where, Y refers to the activating rate (%) and X refers to the compound concentration.

Test [5] deals with T1, HDAC1 (Homo sapiens, UniProt Q13547).
T1 construct: purchased BPS Bioscience
T1 sequence (Q13547 whole entry, species assumed): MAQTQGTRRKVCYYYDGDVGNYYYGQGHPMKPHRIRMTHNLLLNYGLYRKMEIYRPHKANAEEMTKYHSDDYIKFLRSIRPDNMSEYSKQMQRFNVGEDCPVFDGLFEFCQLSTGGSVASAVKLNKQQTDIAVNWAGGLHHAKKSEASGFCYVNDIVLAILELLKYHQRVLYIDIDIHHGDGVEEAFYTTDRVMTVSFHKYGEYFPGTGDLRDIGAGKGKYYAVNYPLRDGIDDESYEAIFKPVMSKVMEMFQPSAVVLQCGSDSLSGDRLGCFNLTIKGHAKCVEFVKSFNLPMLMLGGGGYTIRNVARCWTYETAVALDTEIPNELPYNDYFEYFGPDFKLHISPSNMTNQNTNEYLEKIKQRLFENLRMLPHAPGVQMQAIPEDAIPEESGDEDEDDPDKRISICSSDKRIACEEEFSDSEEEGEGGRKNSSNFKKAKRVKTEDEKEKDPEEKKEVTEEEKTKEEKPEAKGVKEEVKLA
Briefly: In vitro HDAC1 enzymatic activity inhibition (Lys-Ac-AMC substrate). The test is classed as biochemical. Put shortly:
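Fluorogenic Lys-Ac-AMC deacetylation with trypsin development in modified Tris buffer pH 7.0; compound preincubated with enzyme 15 min at ambient temperature before substrate addition. Final HDAC1 6 nM, trypsin 0.05 μM, Ac-peptide 8 μM. IC50 from four-parameter fit of % inhibition versus concentration.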

The mark [6] stands for this setting: 96 h incubation, read-out: Proliferation IC50, Ovarian cancer A2780s.
Setting [7] is: 96 h incubation, read-out: Proliferation IC50, Acute myeloid leukemia MV4-11.
The mark [8] stands for this setting: Table 1, graded, read-out: HDAC1 IC50.
Setting [9] is: Table 4, graded, read-out: HDAC1 IC50.
Setting [10] is: read-out: inhibition value IC50 to the activity of HDAC1.

Like-named read-outs stand apart in the source and are kept apart here.

On to `COc1ccc(-c2nc(N3CCOCC3)c3nc(CN(C)c4ncc(C(=O)NO)cn4)n(C)c3n2)cn1` [CLJ-1, 2-(((2-(6-methoxypyridine-3-yl)-9-methyl-6-morpholine-9H-purine-8-yl))methyl(methyl)amino)-N-hydroxyl pyrimidine-5-formamide], for which the IC50 is 0.1 to 10 nM in test [1] (setting [6]); 1 to 10 nM in test [2]; 0.1 to 10 nM in test [3] (setting [7]); less than 100 nM in test [5] (setting [8]); 1 to 100 nM in test [5] (setting [9]). In addition, the concentration giving a half-maximal response (EC50) in test [4] was in the range of 100 to 200 nM.
For `CN(Cc1nc2c(N3CCOCC3)nc(-c3cnc(N)nc3)nc2n1C)c1ncc(C(=O)NO)cn1` [CLJ-11, 2-(((2-(2-aminopyrimidine-5-yl)-9-methyl-6-morpholine-9H-purine-8-yl))methyl(methyl)amino)-N-hydroxyl pyrimidine-5-formamide], the IC50 in test [1] (setting [6]) is 10 to 100 nM; in test [2], 10 to 100 nM; in test [3] (setting [7]), 0.1 to 10 nM; in test [5] (setting [8]), less than 100 nM; in test [5] (setting [9]), 1 to 100 nM. Further, in test [4], the EC50 lay within 100 to 200 nM.
`COc1ccc(-c2nc(N3CCOCC3)c3nc(CN(C)c4ncc(C(=O)NO)cn4)n(C)c3n2)cc1` [CLJ-29, 2-(((2-(4-methoxyphenyl)-9-methyl-6-morpholine-9H-purine-8-yl))methyl(methyl)amino)-N-hydroxyl pyrimidine-5-formamide]: the IC50 in test [1] (setting [6]) was 0.1 to 10 nM; in test [1] (read-out: IC50 to proliferation of A2780s cells) it was 0.1 to 10 nM; in test [2], 1 to 10 nM; in test [3] (setting [7]) it was 0.1 to 10 nM; in test [3] (read-out: IC50 to proliferation of MV4-11 cells), 0.1 to 10 nM; in test [5] (setting [8]) it was less than 1 nM. Further, the IC50 in test [5] (setting [9]) and in test [5] (setting [10]) was less than 1 nM in each case. Further, in test [4], the EC50 was greater than 200 nM.
`CN(Cc1nc2c(N3CCOCC3)nc(-c3ccc(N)cc3)nc2n1C)c1ncc(C(=O)NO)cn1` [CLJ-44]: the IC50 in test [1] (setting [6]) is 0.1 to 10 nM; in test [2], 1 to 10 nM; in test [3] (setting [7]) it was 0.1 to 10 nM; in test [5] (setting [8]) it was less than 1 nM; in test [5] (setting [9]), less than 1 nM; in test [5] (setting [10]), less than 1 nM. Besides, the EC50 in test [4] is greater than 200 nM.
As to `Cc1[nH]c2ccccc2c1CCNCc1ccc(/C=C/C(=O)NO)cc1` [LBH589, panobinostat, reference compound], the IC50 in test [1] (setting [6]) is 0.1 to 10 nM; in test [2] it was 1 to 10 nM; in test [3] (setting [7]) it was 0.1 to 10 nM. In test [4], the EC50 lay within 100 to 200 nM.
